The source of these data is patent US10391070B2, “Compositions and methods for treating neurological diseases or injury” (MUSC FOUNDATION FOR RESEARCH DEVELOPMENT, priority 2012, dated 2019).

One series concerns corneal kindled seizures. Briefly: Corneal kindled mouse model. The class given is in vivo. Conditions: mice, 100 mg/kg i.p., 0.25 hrs. On the procedure: Mouse studies were performed by NIH Anticonvulsant Screening Program at the National Institute of Neurological Disorders and Stroke (Stables and Kupferberg, 1997) according to the established NIH experimental procedures outlined below. Compounds were delivered into mice by i.p. injection at a dose of 100 mg/kg in sterile 5% DMSO, 95% Neobee (Josey et al., 2013). One of four methods for seizure induction was subsequently administered to mice at 0.25, 0.5, 1, 2 and 4 h after treatment with compound. (1) Subcutaneous PTZ seizure threshold test. PTZ was administered at a concentration of 85 mg/kg, into the loose fold of skin in the midline of the neck. […] (2) Maximal electroshock test. 60 Hz of 50 mA alternating current was delivered for 0.2 s by corneal electrodes. Mice were considered protected from seizures when the hindlimb tonic extensor was absent (White et al., 1995). (3) Minimal clonic seizure (6 Hz) test. 6 Hz of 32 mA or 44 mA alternating current was delivered for 3 s by corneal electrodes to elicit a psychomotor seizure. Mice were considered protected from seizures when the automatistic behaviors were absent (Barton et al., 2001). (4) Corneal kindled mouse model. […]

The nature of series [1]: Chronic toxicity evaluation in mice (blood count and chemistry). The class given is in vivo, mouse. Conditions: for blood count and chemistry parameters versus vehicle / weight loss, signs of pain or distress: mice, 50 mg/kg i.p. daily, three weeks. The procedure:
Adult (12 weeks of age) mice (Balb/cByJ, 17-20 g, Jackson Laboratory), were housed in temperature-controlled conditions under a light/dark photocycle with food and water supplied ad libitum. Mice were divided randomly into three groups. The first group (n=3) was injected i.p. with compound 2q at 50 mg/kg dissolved in sterile 5% DMSO, 95% Neobee (Spectrum Chemical) (Allen et al., 2006). The second group (n=3) was injected i.p. with compound 2j at 50 mg/kg dissolved in sterile 5% DMSO, 95% Neobee. The third, vehicle control group (n=2) was injected i.p. with an equivalent volume of sterile 5% DMSO, 95% Neobee. All animals were injected between 11:00 a.m. and 12:00 p.m. Animals were sacrificed by CO2 after three weeks of injections. Blood was collected by cardiac puncture and standard blood count and chemistry was evaluated by the MUSC/VA Veterinary Diagnostic Laboratory (Charleston, S.C.). All animal and treatment protocols were in compliance with the Guide for the Care and Use of Laboratory Animals as adopted and promulgated by the National Institutes of Health (Institute of Laboratory Animal Resources, 1996).
Preliminary in vivo toxicity was assessed for compounds 2q and 2j in mice. […] Adult mice were injected intraperitoneally (i.p.) daily. […] After three weeks of chronic, high dose injections, animals were sacrificed and standard blood count and chemistry analyses performed.

Series [2] can be described thus: Presence in mouse brain by LC-MS. The class given is in vivo. The following applies: mice, i.p. daily for three weeks, brain 2 hours after final injection. The procedure: VK2 is synthesized in situ where it is needed. […] Utilizing small synthetic VK analog that can perform similarly to VK2 is of novelty for epileptic treatment. Mice were under I.P. daily injection of 2q for three weeks and their brains were harvested 2 hours after the final injection. The mouse brains were extracted with organic solvent. The presence and the level of 2q were determined using LC-MS techniques (FIG. 9). The presence of 2q was detected via mass spectrometry in the mice brain 2 hours after i.p. injections.

The mark [3] stands for this setting: mouse blood chemistry, 50 mg/kg, 3 wks i.p., individual animals 1-3.
Setting [4] is: mouse complete blood count, 50 mg/kg, 3 wks i.p., individual animals 1-3.

SMILES strings stand for the structures. Where “and” joins values, the source holds several entries; their conditions need not be identical. Identical values can stand only once.

Take `C#CCNC1=CC(=O)c2ccccc2C1=O` [Compound 2h, 2-(prop-2-yn-1-ylamino)naphthalene-1,4-dione]: in the series on corneal kindled seizures, the Avg seizure score worked out at 3.75 and the “N/F (animals protected/animals tested)” value is listed as 2/4.
For the molecule `O=C1C=C(NCc2ccccc2)C(=O)c2ccccc21` [Compound 2j, 2-(benzylamino)naphthalene-1,4-dione], in series [1], the “blood count and chemistry parameters versus vehicle” value is on record as “consistent with those of the vehicle control group”; the “weight loss, signs of pain or distress” value is recorded as “no weight loss or outward signs of pain or distress”.
Turning to `O=C1C=C(NCc2cccc(Cl)c2)C(=O)c2ccccc21` [Compound 2q, 2-((3-chlorobenzyl)amino)naphthalene-1,4-dione], the “presence in brain (LC-MS)” value in series [2] was “detected”. In series [1], the “blood count and chemistry parameters versus vehicle” value is “consistent with those of the vehicle control group”; the “weight loss, signs of pain or distress” value is reported as “no weight loss or outward signs of pain or distress”. Moreover, in series [1] (setting [3]), the ALP is 72 U/L and 80 U/L and 60 U/L; the ALT is 34 U/L and 28 U/L and 33 U/L; the AST was 89 U/L and 71 U/L and 78 U/L; the Albumin was 3 g/dL and 3.2 g/dL and 2.8 g/dL. In series [1] (setting [3]), the BUN was 19 mg/dL (2×) and 20 mg/dL; the Creatinine is 0.16 mg/dL and 0.23 mg/dL and 0.18 mg/dL; the Glucose is 195 mg/dL (2×) and 205 mg/dL; the “Total Bilirubin” value was 0.20 mg/dL. The “Total Protein” value in series [1] (setting [3]) was 5.2 g/dL and 5.3 g/dL and 4.9 g/dL. In series [1] (setting [4]), the BA is 0.01 K/uL and 0.05 K/uL and 0.02 K/uL; the EO was 0.10 K/uL and 0.17 K/uL and 0.01 K/uL; the HCT is 51.1% and 53.2% and 51.3%; the Hb was 13.9 g/dL (2×) and 14.5 g/dL. In series [1] (setting [4]), the LY is 3.30 K/uL and 5.14 K/uL and 2.45 K/uL; the MCH was 14.8 pg (2×) and 15.3 pg; the MCHC was 27.2 g/dL and 27.3 g/dL and 27.1 g/dL; the MCV was 54.4 fL and 56.2 fL and 54.8 fL. In addition, in series [1] (setting [4]), the MO is 0.32 K/uL and 0.43 K/uL and 0.35 K/uL; the MPV is 4.5 fL and 4.6 fL and 4.4 fL; the NE was 5.55 K/uL and 3.03 K/uL and 3.78 K/uL; the PLT is 1139 K/uL and 946 K/uL and 1050 K/uL. In series [1] (setting [4]), the RBC was 9.39 M/uL and 9.46 M/uL and 9.37 M/uL; the RDW is 17.8% and 17.7% and 17.4%; the WBC is 9.28 K/uL and 8.82 K/uL and 6.62 K/uL.
